Values quoted from earlier work as cited in paper PMC9516332 (Frontiers in Oncology, 2022).
Read-outs that look alike come from different tables or passages of the source.

Tests used:
Conditions in all cases: cited from earlier work
[1] = target: T1, panel of 255 wild-type kinases (Homo sapiens, UniProt P29323)
T1 sequence (P29323 19-1055): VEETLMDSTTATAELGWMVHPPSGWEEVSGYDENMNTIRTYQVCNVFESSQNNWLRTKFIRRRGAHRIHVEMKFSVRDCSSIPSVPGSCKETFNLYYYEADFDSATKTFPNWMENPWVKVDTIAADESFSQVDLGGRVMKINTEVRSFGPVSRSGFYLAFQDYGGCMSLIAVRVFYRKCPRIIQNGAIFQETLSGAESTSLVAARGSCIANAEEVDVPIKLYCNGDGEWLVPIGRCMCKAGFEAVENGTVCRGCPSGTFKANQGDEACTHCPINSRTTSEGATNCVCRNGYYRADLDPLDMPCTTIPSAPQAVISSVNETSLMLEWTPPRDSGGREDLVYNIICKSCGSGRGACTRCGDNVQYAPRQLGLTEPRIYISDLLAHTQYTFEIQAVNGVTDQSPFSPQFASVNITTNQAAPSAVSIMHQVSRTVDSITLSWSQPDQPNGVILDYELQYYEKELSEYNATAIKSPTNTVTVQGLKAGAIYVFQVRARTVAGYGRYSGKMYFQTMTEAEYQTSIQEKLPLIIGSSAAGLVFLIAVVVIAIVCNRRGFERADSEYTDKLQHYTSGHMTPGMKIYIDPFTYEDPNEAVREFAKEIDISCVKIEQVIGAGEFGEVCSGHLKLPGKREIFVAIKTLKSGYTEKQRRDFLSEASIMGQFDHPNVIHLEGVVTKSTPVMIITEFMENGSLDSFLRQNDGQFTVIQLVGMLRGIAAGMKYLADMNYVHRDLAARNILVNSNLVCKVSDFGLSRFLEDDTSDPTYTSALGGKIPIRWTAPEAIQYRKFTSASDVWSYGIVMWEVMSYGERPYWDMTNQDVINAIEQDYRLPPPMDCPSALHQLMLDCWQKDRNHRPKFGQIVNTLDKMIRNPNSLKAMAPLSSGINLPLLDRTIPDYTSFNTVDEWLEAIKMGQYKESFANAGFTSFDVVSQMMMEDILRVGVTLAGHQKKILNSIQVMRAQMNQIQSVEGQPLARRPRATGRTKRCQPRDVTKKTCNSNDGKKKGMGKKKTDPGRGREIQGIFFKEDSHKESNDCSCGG

[2] = target: T2, panel of 255 wild-type kinases (Homo sapiens, UniProt P42681)
T2 sequence (P42681 1-527): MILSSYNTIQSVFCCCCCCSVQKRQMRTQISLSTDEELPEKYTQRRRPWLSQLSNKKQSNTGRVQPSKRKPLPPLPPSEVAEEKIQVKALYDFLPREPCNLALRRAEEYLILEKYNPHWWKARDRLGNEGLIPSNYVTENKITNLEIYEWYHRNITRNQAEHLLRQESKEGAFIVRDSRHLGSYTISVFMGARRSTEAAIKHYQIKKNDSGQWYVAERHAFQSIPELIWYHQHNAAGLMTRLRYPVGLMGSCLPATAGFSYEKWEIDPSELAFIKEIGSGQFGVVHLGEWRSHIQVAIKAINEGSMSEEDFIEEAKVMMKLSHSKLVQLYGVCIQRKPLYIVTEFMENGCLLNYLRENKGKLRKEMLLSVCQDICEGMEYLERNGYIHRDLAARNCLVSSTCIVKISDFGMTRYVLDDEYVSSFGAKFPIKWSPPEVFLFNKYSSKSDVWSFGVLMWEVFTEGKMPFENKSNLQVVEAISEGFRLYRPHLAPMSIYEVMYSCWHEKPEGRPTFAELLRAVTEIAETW

[3] = target: panel of 255 wild-type kinases (Homo sapiens, UniProt P42685)
[4] = target: panel of 255 wild-type kinases (Homo sapiens, UniProt P48730)
[5] = target: panel of 255 wild-type kinases (Homo sapiens, UniProt P54764)
[6] = target: T3, panel of 255 wild-type kinases (Homo sapiens, UniProt Q8TF76)
T3 sequence (Q8TF76 1-798): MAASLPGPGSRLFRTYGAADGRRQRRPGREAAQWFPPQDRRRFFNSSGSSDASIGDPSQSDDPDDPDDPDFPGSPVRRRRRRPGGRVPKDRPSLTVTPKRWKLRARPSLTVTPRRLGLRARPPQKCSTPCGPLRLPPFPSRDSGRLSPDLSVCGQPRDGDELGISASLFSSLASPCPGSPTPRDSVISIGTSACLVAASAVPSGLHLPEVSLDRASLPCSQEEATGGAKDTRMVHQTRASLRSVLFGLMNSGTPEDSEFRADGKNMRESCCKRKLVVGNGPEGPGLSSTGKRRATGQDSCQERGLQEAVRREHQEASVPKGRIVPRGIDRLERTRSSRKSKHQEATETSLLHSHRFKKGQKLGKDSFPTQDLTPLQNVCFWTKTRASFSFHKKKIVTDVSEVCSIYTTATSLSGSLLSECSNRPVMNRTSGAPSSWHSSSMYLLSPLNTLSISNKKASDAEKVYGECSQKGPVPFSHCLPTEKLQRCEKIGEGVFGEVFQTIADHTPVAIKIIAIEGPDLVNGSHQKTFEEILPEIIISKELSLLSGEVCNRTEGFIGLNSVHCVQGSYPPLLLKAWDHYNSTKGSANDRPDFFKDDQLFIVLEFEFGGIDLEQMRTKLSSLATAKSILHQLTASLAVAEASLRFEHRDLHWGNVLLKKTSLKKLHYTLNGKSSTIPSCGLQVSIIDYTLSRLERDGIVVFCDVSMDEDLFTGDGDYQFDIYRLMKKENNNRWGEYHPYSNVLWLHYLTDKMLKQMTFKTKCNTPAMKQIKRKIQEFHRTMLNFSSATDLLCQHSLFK

[7] = target: panel of 255 wild-type kinases (Homo sapiens, UniProt Q9Y5S2)
[8] = kinase EPHB2, 1 µmol/L single concentration, ref DOI: 10.1158/1535-7163.MCT-18-0877
[9] = kinase TXK, 1 µmol/L single concentration, ref DOI: 10.1158/1535-7163.MCT-18-0877
[10] = kinase FRK, 1 µmol/L single concentration, ref DOI: 10.1158/1535-7163.MCT-18-0877
[11] = kinase CK1δ, 1 µmol/L single concentration, ref DOI: 10.1158/1535-7163.MCT-18-0877
[12] = kinase EPHA4, 1 µmol/L single concentration, ref DOI: 10.1158/1535-7163.MCT-18-0877
[13] = kinase Haspin, 1 µmol/L single concentration, ref DOI: 10.1158/1535-7163.MCT-18-0877
[14] = MRCKβ, 1 µmol/L single concentration, ref DOI: 10.1158/1535-7163.MCT-18-0877
[15] = kinase EPHB2, 1 µmol/L single concentration, ref DOI: 10.1371/journal.pone.0092146
[16] = kinase TXK, 1 µmol/L single concentration, ref DOI: 10.1371/journal.pone.0092146
[17] = kinase FRK, 1 µmol/L single concentration, ref DOI: 10.1371/journal.pone.0092146
[18] = kinase CK1δ, 1 µmol/L single concentration, ref DOI: 10.1371/journal.pone.0092146
[19] = kinase EPHA4, 1 µmol/L single concentration, ref DOI: 10.1371/journal.pone.0092146
[20] = kinase Haspin, 1 µmol/L single concentration, ref DOI: 10.1371/journal.pone.0092146
[21] = MRCKβ, 1 µmol/L single concentration, ref DOI: 10.1371/journal.pone.0092146

Structure (SMILES) | %-inhibition at 1 µmol/L, EPHB2 [1, 8] [%] | %-inhibition at 1 µmol/L, TXK [2, 9] [%] | %-inhibition at 1 µmol/L, FRK [3, 10] [%] | %-inhibition at 1 µmol/L, CK1δ [4, 11] [%] | %-inhibition at 1 µmol/L, EPHA4 [5, 12] [%] | %-inhibition at 1 µmol/L, Haspin [6, 13] [%] | %-inhibition, MRCKβ [7, 14] [%] | also measured
CC#CC(=O)N1CCC[C@H]1c1nc(-c2ccc(C(=O)Nc3ccccn3)cc2)c2c(N)nccn12 [acalabrutinib] | -0.111 | 68 | 47 | 2.76 | -3 | 5.31 | -16 | 
CCc1cc2c(cc1N1CCC(N3CCOCC3)CC1)C(C)(C)c1[nH]c3cc(C#N)ccc3c1C2=O [alectinib] | 27 | 2.46 | 53 | -5.53 | 3 | 8 | -5 | 
COc1cc(N2CCC(N3CCN(C)CC3)CC2)ccc1Nc1ncc(Cl)c(Nc2ccccc2P(C)(C)=O)n1 [brigatinib] |  |  |  |  |  |  |  | %-inhibition at 1 µmol/L, EPHB2 [1]: 10%; %-inhibition at 1 µmol/L, TXK [2]: 76%; %-inhibition at 1 µmol/L, FRK [3]: 104%; %-inhibition at 1 µmol/L, CK1δ [4]: -3.62%; %-inhibition at 1 µmol/L, EPHA4 [5]: 3%; %-inhibition at 1 µmol/L, Haspin [6]: 9%; %-inhibition, MRCKβ [7]: 38%
Cc1cc(Nc2ncc(Cl)c(Nc3ccccc3S(=O)(=O)C(C)C)n2)c(OC(C)C)cc1C1CCNCC1 [ceritinib] | 15 | 1.15 | 85 | -6 | 1.33 | 7 | -0.678 | 
O=C(c1ccc(F)c(F)c1Nc1ccc(I)cc1F)N1CC(O)([C@@H]2CCCCN2)C1 [cobimetinib] | 1.53 | 0.165 | 0.866 | -2.63 | 3 | 8 | 0.0776 | 
C[C@@H](Oc1cc(-c2cnn(C3CCNCC3)c2)cnc1N)c1c(Cl)ccc(F)c1Cl [crizotinib] |  |  |  |  |  |  |  | %-inhibition at 1 µmol/L, EPHB2 [1, 15]: 57%; %-inhibition at 1 µmol/L, TXK [2, 16]: 39%; %-inhibition at 1 µmol/L, FRK [3, 17]: 26%; %-inhibition at 1 µmol/L, CK1δ [4, 18]: 9%; %-inhibition at 1 µmol/L, EPHA4 [5, 19]: 58%; %-inhibition at 1 µmol/L, Haspin [6, 20]: 7%; %-inhibition, MRCKβ [7, 21]: -2%
CC(C)(C)c1nc(-c2cccc(NS(=O)(=O)c3c(F)cccc3F)c2F)c(-c2ccnc(N)n2)s1 [dabrafenib] |  |  |  |  |  |  |  | %-inhibition at 1 µmol/L, EPHB2 [1, 15]: -3.38%; %-inhibition at 1 µmol/L, TXK [2, 16]: 18%; %-inhibition at 1 µmol/L, FRK [3, 17]: 81%; %-inhibition at 1 µmol/L, CK1δ [4, 18]: 8.51%; %-inhibition at 1 µmol/L, EPHA4 [5, 19]: 12%; %-inhibition at 1 µmol/L, Haspin [6, 20]: 9%; %-inhibition, MRCKβ [7, 21]: -2.85%
C=CC(=O)N1CCC[C@@H](n2nc(-c3ccc(Oc4ccccc4)cc3)c3c(N)ncnc32)C1 [ibrutinib] | 28 | 98 | 100 | 7.46 | 13 | 2.53 | -7.55 | 
CO[C@@H]1[C@H](N(C)C(=O)c2ccccc2)C[C@H]2O[C@]1(C)n1c3ccccc3c3c4c(c5c6ccccc6n2c5c31)C(=O)NC4 [midostaurin] | 4.5 | 25 | 70 |  | 2.15 | 31 | 18 | %-inhibition at 1 µmol/L, CK1δ [4]: -2%
C=CC(=O)Nc1cc(Nc2nccc(-c3cn(C)c4ccccc34)n2)c(OC)cc1N(C)CCN(C)C [osimertinib] | 2.8 | 82 | 34 | 7.49 | 3.54 | 14 | 12 | 
